Measurements as given in patent US8029980B2, “Identification and use of agents that modulate oncogenic transcription agent activity” (The Board of Trustees of the University of Illinois, priority 2006, dated 2011).

Assays:
[1] = test system: FoxM1 target genes Cdc25B, Survivin, and CENPB; assay: Real-time quantitative RT-PCR of FoxM1 target gene mRNA in C3-Luc cells; type: cell-based, human; settings: 24 hrs, vs DMSO
Description: FIG. 2. Siomycin A inhibits endogenous FoxM1 transcriptional activity. (A) C3-Luc cells without doxycycline induction, were treated with increasing dose of Siomycin A and luciferase activity was determined as described in Example 1. (B) C3-Luc cells treated either with DMSO (control) or Siomycin A were harvested 24 hrs later and the RNA was subjected to real-time RT-PCR for quantitation of mRNA levels of FoxM1 target genes Cdc25B, Survivin, and CENPB. (C) C3-Luc cells treated as indicated were harvested 24 hrs later and used for immunoblot analysis to determine the levels of survivin, and p21^WAF1. β-actin protein levels were used as loading control.
Cells treated with Siomycin A or DMSO (control) were harvested 24 hrs later and RNA was extracted using the TRIzol reagent (15596-026; Invitrogen). cDNA was prepared from this RNA using the Bio-Rad cDNA synthesis kit. The following sense (S) and antisense (AS) primer sequences and annealing temperatures (Ta) were used to amplify and measure the amount of human mRNA by real-time RT-PCR: FoxM1-S, 5′-GGAGGAAATGCCACACTTAGCG-3′ (SEQ ID NO: 1), and FoxM1-AS, 5′-TAGGACTTCTTGGGTCTTGGGGTG-3′ (SEQ ID NO: 2) (Ta, 55.7° C.); survivin-S, 5′-TCAAGGACCACCGCATCTCTA-3′ (SEQ ID NO: 3), and survivin-AS, 5′-TGAAGCAGAAGAAACACTGGGC-3′ (SEQ ID NO: 4) (Ta, 61° C.); CENPB-S, 5′-ATTCAGACAGTGAGGAAGAGGACG-3′ (SEQ ID NO: 5), and CENPB-AS, 5′-CATCAATGGGGAAGGAGGTCAG-3′ (SEQ ID NO: 6) (Ta, 58° C.); Cdc25B-S, 5′-CCCTTCCCTGTTTTCCTTTC-3′ (SEQ ID NO: 7), and Cdc25B-AS, 5′-ACACACACTCCTGCCATAGG-3′ (SEQ ID NO: 8) (Ta, 61.7° C.). These real-time RT-PCR RNA levels were normalized to human cyclophilin mRNA levels, and these primers are as follows: cyclophilin-S, 5′-GCAGACAAGGTCCCAAAGACAG-3′ (SEQ ID NO: 9), and cyclophilin-AS, 5′-CACCCTGACACATAAACCCTGG-3′ (SEQ ID NO: 10) (Ta, 55.7° C.).

FoxM1 = target: T1, FoxM1 (Homo sapiens, UniProt Q08050); assay: FoxM1 immunoprecipitation and MPM2 immunoblot for phospho-FoxM1 in C3-Luc cells; type: cell-based; settings: 100 μM, 8 hrs
T1 construct: endogenous in cells; host or cells: C3-Luc (U2OS)
T1 sequence (Q08050 1-763): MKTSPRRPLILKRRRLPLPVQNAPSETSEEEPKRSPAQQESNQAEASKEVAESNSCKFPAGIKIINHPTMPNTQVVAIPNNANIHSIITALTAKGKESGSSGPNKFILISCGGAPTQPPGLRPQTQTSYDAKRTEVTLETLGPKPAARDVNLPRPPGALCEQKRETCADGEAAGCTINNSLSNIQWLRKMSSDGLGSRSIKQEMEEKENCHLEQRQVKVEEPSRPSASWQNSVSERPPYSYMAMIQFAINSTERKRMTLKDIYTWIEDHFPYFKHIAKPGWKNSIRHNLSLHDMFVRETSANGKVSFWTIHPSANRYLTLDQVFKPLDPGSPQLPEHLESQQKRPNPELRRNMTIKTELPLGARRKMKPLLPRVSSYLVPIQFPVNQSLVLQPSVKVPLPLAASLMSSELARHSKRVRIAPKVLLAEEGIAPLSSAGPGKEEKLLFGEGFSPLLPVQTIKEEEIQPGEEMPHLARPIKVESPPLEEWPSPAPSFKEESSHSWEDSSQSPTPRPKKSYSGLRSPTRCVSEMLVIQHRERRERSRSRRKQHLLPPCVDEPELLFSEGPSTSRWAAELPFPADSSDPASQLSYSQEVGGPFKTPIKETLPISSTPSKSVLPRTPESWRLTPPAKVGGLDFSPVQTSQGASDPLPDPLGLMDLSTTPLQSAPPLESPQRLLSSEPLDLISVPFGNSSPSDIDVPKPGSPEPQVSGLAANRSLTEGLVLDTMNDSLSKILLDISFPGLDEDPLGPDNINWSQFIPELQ
Description: Immunoblotting was performed as described (18-20) with antibodies specific for p21 (556431; BD Pharmingen), survivin (sc-10811; Santa Cruz), cleaved caspase-3 (9664; Cell Signaling), and β-actin (A5441; Sigma) antibodies. Immunoblot for FoxM1 was done using the previously generated rabbit antisera (2), and phospho-FoxM1 was detected using the MPM2 monoclonal antibody (Upstate Biotechnology) which recognizes the phosphorylated protein sequence phosphoserine/phosphothreonine-proline.
For the immunoprecipitation experiment, FoxM1 antisera (2) was used along with protein A-sepharose to pull down FoxM1 protein, which was resolved on an SDS-PAGE gel and transferred to PVDF membrane. The total and phospho-FoxM1 levels were determined by using the antibodies described above.
Based on this observation, we hypothesized that Siomycin A may inhibit FoxM1 transcriptional activity by blocking this phosphorylation event. In order to test this hypothesis, we treated C3-Luc cells with DMSO (control) or 100 μM of Siomycin A for 8 hrs and immunoprecipitated FoxM1 from the lysates. We then analyzed these samples for phospho-FoxM1 levels by immunoblotting with MPM2, a monoclonal antibody that recognizes phosphorylated Cdk1 and Cdk2 sites.

[2] = test system: NB7 and NB7-casp8 neuroblastoma cells; assay: FoxM1 and cleaved caspase-3 immunoblot in neuroblastoma cells; type: cell-based; settings: 24 hrs
Description: FIG. 11. […] Cells were treated with Siomycin A, thiostrepton or DMSO, harvested 24 hrs later and the lysates were used to determine proteins levels by immunoblotting with antibodies specific for FoxM1, cleaved caspase-3 and β-actin (AS441, Sigma).

293 and Hela cells = assay: Sensitization to TNF-alpha-induced apoptosis (cleaved caspase-3 immunoblot); type: cell-based, human; settings: 1 μM Siomycin A and 10 ng/ml TNF-alpha, 24 hours
Description: FIG. 14. […] 293 (A) and Hela (B) cells were pretreated with the indicated concentrations of Sulfazalazine (control) for overnight. The following day the cells were treated with 1 μM Siomycin A and 10 ng/ml TNF-alpha as indicated. Twenty-four hours later the cells were harvested and the total cell lysates were used to determine the level of cleaved caspase-3. β-actin was used as the loading control.

SMILES: C=C(NC(=O)C(=C)NC(=O)c1csc(C2=N[C@@H]3c4csc(n4)[C@H]4NC(=O)c5csc(n5)[C@H]([C@](C)(O)[C@@H](C)O)NC(=O)[C@H]5CSC(=N5)/C(=C/C)NC(=O)[C@H]([C@@H](C)O)NC(=O)c5csc(n5)[C@]3(CC2)NC(=O)[C@H](C)NC(=O)C(=C)NC(=O)C(=C)NC(=O)[C@H](C(C)C)N[C@@H]2C=Cc3c([C@H](C)O)cc(nc3[C@H]2O)C(=O)O[C@@H]4C)n1)C(N)=O [Siomycin A]
- CENPB mRNA level compared to initial level [1]: 15%
- Cdc25B mRNA level relative to basal value [1]: 32%
- Survivin mRNA level compared to initial level [1]: 48%
- phospho-FoxM1 levels (FoxM1): decrease in phospho-FoxM1
- total FoxM1 levels (FoxM1): only marginally reduced
- apoptosis (cleaved caspase-3) ([2]; NB7 and NB7 with reconstituted caspase-8): induce apoptosis in these neuroblastoma cells independently from caspase-8
- FoxM1 protein expression ([2]; immunoblot): inhibit FoxM1 protein expression
- sensitization to TNF-alpha-induced apoptosis (293 and Hela cells): sensitize human cancer cells to TNF-alpha-induced apoptosis
